Read-outs that look alike come from different tables or passages of the source. One block for each compound: values may come before it.
Legend:
[1] = tested on: human colon carcinoma cells (HT-29); test: XTT cell proliferation assay, HT-29 cells, 48 h; assay type: cell-based; details: read-out: % Survival; for viability at 25 µM: 25 μM compound; for viability at 100 µM: 100 μM compound
Description: (§1) Selected compounds of Formula I were tested for anti-cancer activity in vitro using a human colon carcinoma cells (HT-29) and human non-small cell lung cancer cells (H460). The cells were maintained in α-MEM medium (Wisent, St-Bruno, Qc) supplemented with 10% FBS, and grown at 37° C. in an atmosphere of 5% CO2. Cells were transferred onto 150 mm tissue culture plates and grown until sub-confluency (70-80%) prior to their use.
(§2) The anti-cancer activity in vitro was evaluated by a cell proliferation assay based on the ability of live cells to reduce the tetrazolium salt XTT to orange coloured compounds of formazan (XTT cell proliferation kit II, Roche Applied Science, Montreal, QC).
(§3) Approximately 4×10^3 colon cancer cells (HT-29) or 2×10^3 non-small cell lung cancer cells (NCI-H460) in 100 μl of complete culture medium were plated onto 96-well microtiter plates and incubated overnight at 37° C. The medium was then removed by inverting the plate and patting on a sterile absorbent cloth. Fifty μl of medium containing the test compound at either 25 or 100 μM, were added to the wells containing cells and incubated at 37° C. in an atmosphere of 5% CO2 for 48 h. Following incubation, 25 μl of an XTT reaction mixture (XTT at a final concentration of 0.3 mg/ml) were added to each well and the plates were incubated for a further 4 h. The absorbance of each sample was then determined at a wavelength of 490 nm/650 nm as reference. Each compound was tested in duplicate and the results are reported as averages.

[2] = tested on: human non-small cell lung cancer cells (H460); test: XTT cell proliferation assay, H460 cells, 48 h; assay type: cell-based; details: read-out: % Survival
Description: as §1, §2, §3

[3] = NCI/DTP data; cited from earlier work
[4] = NCI-H460 cells, 25 μM compound, 48 h, XTT
[5] = NCI-H460 cells, 100 μM compound, 48 h, XTT

- melting point: 240 to 242 °C
Compound: c1ccc(-c2[nH]c3ccccc3c2-c2nc3c4ccccc4c4ccccc4c3[nH]2)cc1

- melting point: 365 to 366 °C
Compound: O=[N+]([O-])c1ccc2c3ccccc3c3nc(-c4c[nH]c5ccccc45)[nH]c3c2c1

- melting point: 236 to 237 °C
Compound: Brc1ccc2[nH]cc(C=Nc3ccc4c5ccccc5c5nc(-c6c[nH]c7ccc(Br)cc67)[nH]c5c4c3)c2c1

- melting point: 335 to 336 °C
Compound: Cc1[nH]c2ccccc2c1-c1nc2c3ccccc3c3ccc([N+](=O)[O-])cc3c2[nH]1

- melting point: 300 to 303 °C
Compound: Nc1ccc2c3ccccc3c3nc(-c4c[nH]c5ccc(Br)cc45)[nH]c3c2c1

Compound: CCc1c2c(nc3ccc(OC(=O)N4CCC(N5CCCCC5)CC4)cc13)-c1cc3c(c(=O)n1C2)COC(=O)[C@]3(O)CC [CPT-11, irinotecan, reference compound]
- viability at 25 µM [1]: 82.3%
- viability at 100 µM [1]: 51.1%
- viability at 25 µM [2, 4]: 32.2%
- viability at 100 µM [2, 5]: 6.1%

Compound: CC(=O)n1c(-c2c(C)n(C(C)=O)c3ccccc23)nc(-c2ccccc2)c1-c1ccccc1 [Compound 5]
- viability at 25 µM [1]: 111%
- viability at 100 µM [1]: 111%
- viability at 25 µM [2, 4]: 102%
- viability at 100 µM [2, 5]: 106%

Compound: Brc1ccc2[nH]cc(-c3nc(-c4ccccc4)c(-c4ccccc4)[nH]3)c2c1 [Compound 6]
- viability at 25 µM [1]: 11.7%
- viability at 100 µM [1]: 3.2%
- viability at 25 µM [2, 4]: 10.4%
- viability at 100 µM [2, 5]: 1.9%

Compound: COc1ccc(-c2nc(-c3c(C)[nH]c4ccccc34)[nH]c2-c2ccc(OC)cc2)cc1 [Compound 9]
- viability at 25 µM [1]: 68.3%
- viability at 100 µM [1]: 15.1%
- viability at 25 µM [2, 4]: 98.2%
- viability at 100 µM [2, 5]: 8.4%

Compound: COc1ccc(-c2nc(-c3c[nH]c4ccc(Br)cc34)[nH]c2-c2ccc(OC)cc2)cc1 [Compound 10]
- viability at 25 µM [1]: 25.8%
- viability at 100 µM [1]: 7.6%
- viability at 25 µM [2, 4]: 26.9%
- viability at 100 µM [2, 5]: 2.7%

Compound: Cc1[nH]c2ccccc2c1-c1nc(-c2ccc(N(C)C)cc2)c(-c2ccc(N(C)C)cc2)[nH]1 [Compound 11]
- viability at 25 µM [1]: 108%
- viability at 100 µM [1]: 94.3%
- viability at 25 µM [2, 4]: 98.8%
- viability at 100 µM [2, 5]: 102%

Compound: Cc1[nH]c2ccccc2c1-c1nc(-c2ccc(Br)cc2)c(-c2ccc(Br)cc2)[nH]1 [Compound 13]
- viability at 25 µM [1]: 106%
- viability at 100 µM [1]: 82.4%
- viability at 25 µM [2, 4]: 102%
- viability at 100 µM [2, 5]: 96.2%

Compound: Brc1ccc(-c2nc(-c3c[nH]c4ccc(Br)cc34)[nH]c2-c2ccc(Br)cc2)cc1 [Compound 14]
- viability at 25 µM [1]: 55.2%
- viability at 100 µM [1]: 3.8%
- viability at 25 µM [2, 4]: 83.5%
- viability at 100 µM [2, 5]: 1.8%

- melting point: 165 to 167 °C
Compound: Cc1[nH]c2ccccc2c1-c1nc(-c2ccc(Cl)cc2)c(-c2ccc(Cl)cc2)[nH]1 [Compound 19]
- viability at 25 µM [1]: 106%
- viability at 100 µM [1]: 37.1%
- viability at 25 µM [2, 4]: 89.2%
- viability at 100 µM [2, 5]: 27.3%

Compound: Clc1ccc(-c2nc(-c3c[nH]c4ccc(Br)cc34)[nH]c2-c2ccc(Cl)cc2)cc1 [Compound 20]
- viability at 25 µM [1]: 100%
- viability at 100 µM [1]: 28.1%
- viability at 25 µM [2, 4]: 98.6%
- viability at 100 µM [2, 5]: 82.1%

Compound: Cc1ccc(-c2nc(-c3c(C)[nH]c4ccccc34)[nH]c2-c2ccc(C)cc2)cc1 [Compound 23]
- viability at 25 µM [1]: 98.2%
- viability at 100 µM [1]: 45.7%
- viability at 25 µM [2, 4]: 96.3%
- viability at 100 µM [2, 5]: 92.1%

Compound: Cc1[nH]c2ccccc2c1-c1nc(-c2cccs2)c(-c2cccs2)[nH]1 [Compound 25]
- viability at 25 µM [1]: 63.9%
- viability at 100 µM [1]: 39.8%
- viability at 25 µM [2, 4]: 99.5%
- viability at 100 µM [2, 5]: 89%

Compound: Cc1[nH]c2ccccc2c1-c1nc(-c2ccncc2)c(-c2ccc(F)cc2)[nH]1 [Compound 27]
- viability at 25 µM [1]: 62.3%
- viability at 100 µM [1]: 35%
- viability at 25 µM [2, 4]: 93.5%
- viability at 100 µM [2, 5]: 43.1%

Compound: Cc1[nH]c2ccccc2c1-c1nc(-c2cccc([N+](=O)[O-])c2)c(-c2cccc([N+](=O)[O-])c2)[nH]1 [Compound 29]
- viability at 25 µM [1]: 37.1%
- viability at 100 µM [1]: 20.9%
- viability at 25 µM ([2]; NCI-H460, 48 h): 73.8%
- viability at 100 µM ([2]; NCI-H460, 48 h): 20.2%

Compound: Cc1[nH]c2ccccc2c1-c1nc(-c2ccccc2)c(-c2ccc(Cl)cc2)[nH]1 [Compound 31]
- viability at 25 µM [1]: 98.6%
- viability at 100 µM [1]: 24.9%
- viability at 25 µM [2, 4]: 94%
- viability at 100 µM [2, 5]: 37.6%

Compound: Clc1ccc(-c2[nH]c(-c3c[nH]c4ccc(Br)cc34)nc2-c2ccccc2)cc1 [Compound 32]
- viability at 25 µM [1]: 22.7%
- viability at 100 µM [1]: 7.7%
- viability at 25 µM [2, 4]: 15%
- viability at 100 µM [2, 5]: 2.9%

Compound: Cc1[nH]c2ccccc2c1-c1nc(-c2ccccc2)c(-c2ccc([N+](=O)[O-])cc2)[nH]1 [Compound 33]
- viability at 25 µM [1]: 56.1%
- viability at 100 µM [1]: 10%
- viability at 25 µM [2, 4]: 73.4%
- viability at 100 µM [2, 5]: 9.4%

Compound: O=[N+]([O-])c1ccc(-c2[nH]c(-c3c[nH]c4ccc(Br)cc34)nc2-c2ccccc2)cc1 [Compound 34]
- viability at 25 µM [1]: 22.8%
- viability at 100 µM [1]: 10.8%
- viability at 25 µM [2, 4]: 17.4%
- viability at 100 µM [2, 5]: 7.6%

Compound: Cc1[nH]c2ccccc2c1-c1nc(-c2ccccc2)c(-c2ccc(F)cc2)[nH]1 [Compound 35]
- viability at 25 µM [1]: 44.1%
- viability at 100 µM [1]: 2.5%
- viability at 25 µM [2, 4]: 83.8%
- viability at 100 µM [2, 5]: 1.2%

Compound: Fc1ccc(-c2[nH]c(-c3c[nH]c4ccc(Br)cc34)nc2-c2ccccc2)cc1 [Compound 36]
- viability at 25 µM [1]: 31.6%
- viability at 100 µM [1]: 4.7%
- viability at 25 µM [2, 4]: 24.5%
- viability at 100 µM [2, 5]: 2.4%

Compound: Cc1[nH]c2ccccc2c1-c1nc(-c2ccc(Oc3ccccc3)cc2)c(-c2ccc(Oc3ccccc3)cc2)[nH]1 [Compound 38]
- viability at 25 µM [1]: 67%
- viability at 100 µM [1]: 35.7%
- viability at 25 µM [2, 4]: 98.8%
- viability at 100 µM [2, 5]: 12.2%

Compound: Cc1[nH]c2ccc(Br)cc2c1-c1nc(-c2ccc(Oc3ccccc3)cc2)c(-c2ccc(Oc3ccccc3)cc2)[nH]1 [Compound 39]
- viability at 25 µM [1]: 96.2%
- viability at 100 µM [1]: 53%
- viability at 25 µM [2, 4]: 98.1%
- viability at 100 µM [2, 5]: 17%

Compound: Cc1[nH]c2ccccc2c1-c1nc(-c2ccc(-c3ccccc3)cc2)c(-c2ccc(-c3ccccc3)cc2)[nH]1 [Compound 40]
- viability at 25 µM [1]: 79.1%
- viability at 100 µM [1]: 36.7%
- viability at 25 µM [2, 4]: 97.6%
- viability at 100 µM [2, 5]: 7.7%

- melting point: 155 to 158 °C
Compound: Brc1ccc2[nH]cc(-c3nc(-c4ccc(-c5ccccc5)cc4)c(-c4ccc(-c5ccccc5)cc4)[nH]3)c2c1 [Compound 41]

Compound: Cc1[nH]c2ccccc2c1-c1nc(-c2ccccc2)c(-c2ccc(Br)cc2)[nH]1 [Compound 42]
- viability at 25 µM [1]: 59.9%
- viability at 100 µM [1]: 1.8%
- viability at 25 µM [2, 4]: 66.1%
- viability at 100 µM [2, 5]: 1.2%

Compound: Brc1ccc(-c2[nH]c(-c3c[nH]c4ccc(Br)cc34)nc2-c2ccccc2)cc1 [Compound 43]
- viability at 25 µM [1]: 28%
- viability at 100 µM [1]: 5.7%
- viability at 25 µM [2, 4]: 18.8%
- viability at 100 µM [2, 5]: 3%

Compound: Cc1[nH]c2ccccc2c1-c1nc2c3ccccc3c3ccccc3c2[nH]1 [Compound 44]
- viability at 25 µM [1]: 63.6%
- viability at 100 µM [1]: 6.5%
- viability at 25 µM ([2]; NCI-H460, 48 h): 77.3%
- viability at 100 µM ([2]; NCI-H460, 48 h): 3.4%

Compound: c1ccc2c(-c3nc4c5ccccc5c5ccccc5c4[nH]3)c[nH]c2c1 [Compound 46]
- viability at 25 µM [1]: 16.1%
- viability at 100 µM [1]: 4.5%
- viability at 25 µM ([2]; NCI-H460, 48 h): 11.5%
- viability at 100 µM ([2]; NCI-H460, 48 h): 1.9%

Compound: COc1ccc(-c2nc(-c3ccccc3)c(-c3ccccc3)[nH]2)c(OC)c1 [Compound 73]
- viability at 25 µM [1]: 65%
- viability at 100 µM [1]: 62.2%
- viability at 25 µM [2, 4]: 89.2%
- viability at 100 µM [2, 5]: 53.5%

Compound: COC(=O)c1ccc2c(-c3nc(-c4ccccc4)c(-c4ccccc4)[nH]3)c[nH]c2c1 [Compound 83]
- viability at 25 µM [1]: 100%
- viability at 100 µM [1]: 110%
- viability at 25 µM [2, 4]: 101%
- viability at 100 µM [2, 5]: 109%

- melting point: 265 to 266 °C
Compound: COc1ccc(-c2nc(-c3c[nH]c4ccc(Br)cc34)[nH]c2-c2ccccc2)cc1OC [Compound 96]

- melting point: 210 to 215 °C
Compound: Oc1ccc(-c2[nH]c(-c3c[nH]c4ccc(Br)cc34)nc2-c2ccccc2)cc1O [Compound 140]

- melting point: 258 to 259 °C
Compound: COc1ccc(-c2nc(-c3c[nH]c4ccccc34)[nH]c2-c2ccccc2)cc1OC [Compound 152]

- melting point: 239 to 240 °C
Compound: Cc1[nH]c2ccccc2c1-c1nc(-c2cccc3ccccc23)c(-c2ccccc2)[nH]1 [Compound 180]

- melting point: 308 to 310 °C
Compound: Brc1ccc2[nH]cc(-c3nc(-c4cccc5ccccc45)c(-c4ccccc4)[nH]3)c2c1 [Compound 181]

- melting point: 264 to 265 °C
Compound: Nc1ccc(-c2[nH]c(-c3c[nH]c4ccccc34)nc2-c2ccccc2)cc1 [Compound 182]

Compound: c1ccc2c(-c3nc4ccccc4[nH]3)cccc2c1 [Compound 144033]
- activity in the In Vivo Anticancer Drug Screen [3]: None of these three compounds showed any activity

Compound: CN(C)c1ccc(-c2nc3c4ccccc4c4ccccc4c3[nH]2)cc1 [NCI #322334]
- activity in the In Vivo Anticancer Drug Screen [3]: None of these three compounds showed any activity
